Data as given in US6355467B1, “Saccharification enzymes from hyperthermophilic bacteria and processes for their production” (Johns Hopkins University, priority 1989, dated 2002).

How the values were obtained:
[1] = test system: P. furiosus α-glucosidase; test: Substrate specificity (kinetic assays) of purified α-glucosidase; format: biochemical, Pyrococcus furiosus; details: substrate hydrolysed by purified α-glucosidase
Procedure: (§1) α-Glucosidase was assayed using p-nitrophenyl-α-D-glucopyranoside (PNP-α-G) as substrate, and β-glucosidase was assayed using p-nitrophenyl-β-D-glucopyranoside (PNP-β-G) as substrate. Assays were conducted as follows; for each assay, 1.0 ml of substrate consisting of 10 mM PNP-α-G or PNP-β-G in 0.1 M sodium phosphate buffer, pH 5.5, was pipetted into a quartz cuvette. The cuvettes were inserted into a heated cell holder and preincubated for 5 to 10 minutes at the assay temperature of 98° C. Following the preincubation, enzyme sample (10 μl) was added to the cuvette and the evolution of p-nitrophenol (PNP) was followed by monitoring A405.
Substrate specificity. The substrate specificity of the purified α-glucosidase was tested with a variety of natural and synthetic glucosides.

P. furiosus = test: Effect of adding substrate to the culture medium on saccharification enzyme production; format: cell-based, Pyrococcus furiosus; details: substrate added to culture
Procedure: Growth of cells. P. furiosus was grown in artificial sea water supplemented with 10 g/l elemental sulfur and carbohydrate substrate, typically 3 g/l of soluble starch, unless otherwise specified, as described in Example 1. For the present studies, typically one liter bottles were inoculated with 20 ml of a late log phase culture and incubated for 12 hours at 98° C. in a silicon oil bath. Sulfur was removed by filtration and the cell pellet was recovered by centrifugation at about 12,000×g for 30 minutes. Intracellular enzyme preparation. […] The sonicated cells were centrifuged at about 18,000×g for 30 minutes to remove remaining sulfur and cell debris. […] Extracellular enzyme preparation. For extracellular enzyme activities, supernatants from the original centrifugation (i.e., the culture media) were concentrated from 1 liter to about 5 ml using, in succession, a Millipore […] ultrafiltration unit with a 10,000 molecular-weight-cutoff membrane, and a Novacell stirred cell with a 10,000 molecular-weight-cutoff membrane. […] EPPS was used instead of phosphate to prevent precipitation of salts from the media. […] The amount of reducing sugar released was determined using the dinitrosalicylic acid method (Barnfeld, P., 1955, Methods in Enzymology 1:149-50). One unit of enzyme activity was defined as the amount of enzyme that released one nmol of reducing sugar (as a glucose standard) per minute under the assay conditions used. α-Glucosidase was assayed using p-nitrophenyl-α-D-glucopyranoside (PNP-α-G) as substrate, and β-glucosidase was assayed using p-nitrophenyl-β-D-glucopyranoside (PNP-β-G) as substrate. Assays were conducted as follows; for each assay, 1.0 ml of substrate consisting of 10 mM PNP-α-G or PNP-β-G in 0.1 M sodium phosphate buffer, pH 5.5, was pipetted into a quartz cuvette. […] Following the preincubation, enzyme sample (10 μl) was added to the cuvette and the evolution of p-nitrophenol (PNP) was followed by monitoring A405. One unit of glucosidase activity was that amount of enzyme releasing one μmol PNP per minute under the standard conditions, from the appropriate α or β substrate.

[2] = test system: purified P. furiosus α-glucosidase; test: Effects of denaturing agents and inhibitors on purified α-glucosidase; format: biochemical, Pyrococcus furiosus; details: standard assay at 98° C.
Procedure: as §1, with “A405. One unit of glucosidase activity was that amount of enzyme releasing one μmol PNP per minute under the standard conditions, from the appropriate α or β substrate.” for “A405.”
Resistance to denaturing agents. […] Several denaturing agents were added to p-nitrophenyl-α-D-glucopyranoside, both in the presence and absence of the α-glucosidase, to control for possible degradation of the substrate in the presence of the agents.

OC[C@H]1O[C@H](O[C@H]2[C@H](O)[C@@H](O)C(O)O[C@@H]2CO)[C@H](O)[C@@H](O)[C@@H]1O (mixture of isomers) [Maltose]
Km [1]: 5.2 mM | Vm [1]: 1760 U/mg | best yield of pullulanase per liter of culture (P. furiosus; intracellular): 8020 units

O[C@H](CS)[C@H](O)CS (racemic) [Dithiothreitol]
Activity Remaining ([2]; agent at 100 mM): 83%

O=C(O)CN(CCN(CC(=O)O)CC(=O)O)CC(=O)O [EDTA, Ethylenediaminetetraacetic acid]
Activity Remaining ([2]; agent at 20 mM): 50%

O=C(O)CN(CCOCCOCCN(CC(=O)O)CC(=O)O)CC(=O)O [EGTA, [Ethylenebis(oxyethylenenitrilo)]tetraacetic acid]
Activity Remaining ([2]; agent at 20 μM): 85%

Cl.N=C(N)N [Guanidinium hydrochloride]
Activity Remaining ([2]; agent at 1.0 M): <1%

OC[C@H]1O[C@H](OC[C@H]2OC(O)[C@H](O)[C@@H](O)[C@@H]2O)[C@H](O)[C@@H](O)[C@@H]1O (stereo partly drawn) [Isomaltose]
Km [1]: 8.2 mM | Vm [1]: 951 U/mg

CO[C@H]1O[C@H](CO)[C@@H](O)[C@H](O)[C@H]1O [Methyl-α-D-glucopyranoside]
Km [1]: 0.77 mM | Vm [1]: 186 U/mg

CCCCCCCCCCCCOS(=O)(=O)[O-].[Na+] [Sodium dodecyl sulphate]
Activity Remaining ([2]; agent at 1% (w/v), 30 minutes): 22%

OC[C@H]1O[C@@](CO)(O[C@H]2O[C@H](CO)[C@@H](O)[C@H](O)[C@H]2O)[C@@H](O)[C@@H]1O [Sucrose]
activity relative to p-Nitrophenyl-α-D-glucopyranoside (symbols) [1]: nd (No activity detected (<3% of p-Nitrophenyl-α-D-glucopyranoside))

NC(N)=O [Urea]
Activity Remaining ([2]; agent at 1.0 M): 84%

O=[N+]([O-])c1ccc(O[C@@H]2O[C@H](CO)[C@H](O)[C@H](O)[C@H]2O)cc1 [p-Nitrophenyl-α-D-glucopyranoside]
Km [1]: 0.26 mM | Vm [1]: 287 U/mg

O=[N+]([O-])c1ccc(O[C@@H]2O[C@H](CO)[C@@H](O)[C@H](O)[C@H]2O)cc1 [p-Nitrophenyl-β-D-glucopyranoside]
activity relative to p-Nitrophenyl-α-D-glucopyranoside (symbols) [1]: t (Only a trace of activity could be detected (i.e., ˜3% of the level found with p-Nitrophenyl-α-D-glucopyranoside).)

Starch
activity relative to p-Nitrophenyl-α-D-glucopyranoside (symbols) [1]: nd (No activity detected (<3% of p-Nitrophenyl-α-D-glucopyranoside)) | best yield of β-glucosidase per liter of culture (P. furiosus; intracellular): 220 units

glycogen
best yield of amylase per liter of culture (P. furiosus; enzyme in medium): 60,100 units | best yield of α-glucosidase per liter of culture (P. furiosus; intracellular): 9584
